Our source for the T/C values is PubChem BioAssay AID212 (DTP/NCI, 2004).

SMILES strings stand for the structures. Where “and” joins values, the source holds several entries; their conditions need not be identical. Identical values can stand only once. Results filed as inconclusive are left out.

The subject of this experiment is BDF1 mice, colon carcinoma 38 sc, T/C %. Briefly: NCI In Vivo Anticancer Drug Screen. Data for tumor model Colon Carcinoma 38 (subcutaneous) in B6D2F1 (BDF1) mice. Summed up: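 Mice with transplanted tumors are treated with compound or vehicle. Survival or tumor size is then measured in both groups. The ratio of treated to control gives the reported figure.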

With `NC(=O)c1ncn(C2OC(CO)C(O)C2O)c1O` (stereo not drawn), the T/C was 118 % of control (endpoint: median tumor weight (est.), dose: 25.0 mg/kg/injection, schedule: Q07DX002 (ip), vehicle: Klucel (hydroxypropylcellulose) (HPC), higher = larger tumour); 51 % of control (endpoint: median tumor weight (est.), dose: 28.0 mg/kg/injection, schedule: Q07DX002 (ip), vehicle: Klucel (hydroxypropylcellulose) (HPC), higher = larger tumour); 90 % of control (endpoint: median tumor weight (est.), dose: 50.0 mg/kg/injection, schedule: Q07DX002 (ip), vehicle: Klucel (hydroxypropylcellulose) (HPC), higher = larger tumour); 48 % of control (endpoint: median tumor weight (est.), dose: 56.0 mg/kg/injection, schedule: Q07DX002 (ip), vehicle: Klucel (hydroxypropylcellulose) (HPC), higher = larger tumour); 79 % of control (endpoint: median tumor weight (est.), dose: 112.0 mg/kg/injection, schedule: Q07DX002 (ip), vehicle: Klucel (hydroxypropylcellulose) (HPC), higher = larger tumour); 114 % of control and 98 % of control (endpoint: median tumor weight (est.), dose: 200.0 mg/kg/injection, schedule: Q07DX002 (ip), vehicle: Klucel (hydroxypropylcellulose) (HPC), higher = larger tumour). In addition, the T/C (endpoint: median tumor weight (est.), dose: 225.0 mg/kg/injection, schedule: Q07DX002 (ip), vehicle: Klucel (hydroxypropylcellulose) (HPC), higher = larger tumour) was 68 % of control; the T/C (endpoint: median tumor weight (est.), dose: 400.0 mg/kg/injection, schedule: Q07DX002 (ip), vehicle: Klucel (hydroxypropylcellulose) (HPC), higher = larger tumour) was 105 % of control and 107 % of control; the T/C (endpoint: median tumor weight (est.), dose: 450.0 mg/kg/injection, schedule: Q07DX002 (ip), vehicle: Klucel (hydroxypropylcellulose) (HPC), higher = larger tumour) was 61 % of control; the T/C (endpoint: median tumor weight (est.), dose: 800.0 mg/kg/injection, schedule: Q07DX002 (ip), vehicle: Klucel (hydroxypropylcellulose) (HPC), higher = larger tumour) was 75 % of control; the T/C (endpoint: median tumor weight (est.), dose: 900.0 mg/kg/injection, schedule: Q07DX002 (ip), vehicle: Klucel (hydroxypropylcellulose) (HPC), higher = larger tumour) is 61 % of control.
On to `Cc1c2ccncc2c(C)c2c1[nH]c1ccccc12`, for which the T/C by setting is: (endpoint: median tumor weight (est.), dose: 10.0 mg/kg/injection, schedule: Q07DX002 (ip), vehicle: distilled water + Tween-80, higher = larger tumour) 63 % of control; (endpoint: median tumor weight (est.), dose: 12.5 mg/kg/injection, schedule: Q07DX002 (ip), vehicle: Klucel (hydroxypropylcellulose) (HPC), higher = larger tumour) 54 % of control and 75 % of control; (endpoint: median tumor weight (est.), dose: 12.5 mg/kg/injection, schedule: Q07DX003 (ip), vehicle: saline with Tween-80, higher = larger tumour) 42 % of control; (endpoint: median tumor weight (est.), dose: 12.5 mg/kg/injection, schedule: Q07DX003 (ip), vehicle: saline, higher = larger tumour) 78 % of control; (endpoint: median tumor weight (est.), dose: 20.0 mg/kg/injection, schedule: Q07DX002 (ip), vehicle: distilled water + Tween-80, higher = larger tumour) 83 % of control and 103 % of control; (endpoint: median tumor weight (est.), dose: 20.0 mg/kg/injection, schedule: Q07DX002 (ip), vehicle: water, higher = larger tumour) 61 % of control. In addition, the T/C by setting is: (endpoint: median tumor weight (est.), dose: 25.0 mg/kg/injection, schedule: Q07DX003 (ip), vehicle: saline with Tween-80, higher = larger tumour) 38 % of control; (endpoint: median tumor weight (est.), dose: 25.0 mg/kg/injection, schedule: Q07DX003 (ip), vehicle: saline, higher = larger tumour) 69 % of control; (endpoint: median tumor weight (est.), dose: 40.0 mg/kg/injection, schedule: Q07DX002 (ip), vehicle: water, higher = larger tumour) 9 % of control; (endpoint: median tumor weight (est.), dose: 50.0 mg/kg/injection, schedule: Q07DX003 (ip), vehicle: Klucel (hydroxypropylcellulose) (HPC), higher = larger tumour) 45 % of control and 55 % of control; (endpoint: median tumor weight (est.), dose: 50.0 mg/kg/injection, schedule: Q07DX003 (ip), vehicle: saline with Tween-80, higher = larger tumour) 28 % of control; (endpoint: median tumor weight (est.), dose: 50.0 mg/kg/injection, schedule: Q07DX003 (ip), vehicle: saline, higher = larger tumour) 67 % of control. For the same molecule, the T/C (endpoint: median tumor weight (est.), dose: 80.0 mg/kg/injection, schedule: Q07DX002 (ip), vehicle: distilled water + Tween-80, higher = larger tumour) is 7 % of control; the T/C (endpoint: median tumor weight (est.), dose: 100.0 mg/kg/injection, schedule: Q07DX002 (ip), vehicle: Klucel (hydroxypropylcellulose) (HPC), higher = larger tumour) was 12 % of control and 25 % of control; the T/C (endpoint: median tumor weight (est.), dose: 100.0 mg/kg/injection, schedule: Q07DX003 (ip), vehicle: Klucel (hydroxypropylcellulose) (HPC), higher = larger tumour) was 12 % of control and 20 % of control; the T/C (endpoint: median tumor weight (est.), dose: 100.0 mg/kg/injection, schedule: Q07DX003 (ip), vehicle: saline with Tween-80, higher = larger tumour) is 38 % of control; the T/C (endpoint: median tumor weight (est.), dose: 100.0 mg/kg/injection, schedule: Q07DX003 (ip), vehicle: saline, higher = larger tumour) was 33 % of control; the T/C (endpoint: median tumor weight (est.), dose: 200.0 mg/kg/injection, schedule: Q07DX003 (ip), vehicle: saline with Tween-80, higher = larger tumour) was 1 % of control. Also, the T/C (endpoint: median tumor weight (est.), dose: 200.0 mg/kg/injection, schedule: Q07DX003 (ip), vehicle: saline, higher = larger tumour) is 2 % of control.
Take `CN(N=O)C(=O)N[C@@H](C=O)[C@@H](O)[C@H](O)[C@H](O)CO`: the T/C runs as follows: (endpoint: median survival time, dose: 23.0 mg/kg/injection, schedule: Q01DX010 (sc), vehicle: other, higher = longer survival) 110 % of control; (endpoint: median survival time, dose: 37.0 mg/kg/injection, schedule: Q01DX010 (sc), vehicle: other, higher = longer survival) 100 % of control; (endpoint: median survival time, dose: 60.0 mg/kg/injection, schedule: Q01DX010 (sc), vehicle: other, higher = longer survival) 115 % of control; (endpoint: median tumor weight (est.), dose: 12.5 mg/kg/injection, schedule: Q07DX003 (ip), vehicle: other, higher = larger tumour) 78 % of control; (endpoint: median tumor weight (est.), dose: 25.0 mg/kg/injection, schedule: Q07DX003 (ip), vehicle: other, higher = larger tumour) 54 % of control; (endpoint: median tumor weight (est.), dose: 50.0 mg/kg/injection, schedule: Q07DX003 (ip), vehicle: other, higher = larger tumour) 66 % of control. Also, the T/C was 56 % of control (endpoint: median tumor weight (est.), dose: 100.0 mg/kg/injection, schedule: Q07DX003 (ip), vehicle: other, higher = larger tumour) and 34 % of control (endpoint: median tumor weight (est.), dose: 200.0 mg/kg/injection, schedule: Q07DX003 (ip), vehicle: other, higher = larger tumour).
Take `N=C(N)CCNC(=O)C1CCC(N)=N1` (stereo not drawn): the T/C (endpoint: median tumor weight (est.), dose: 3.38 mg/kg/injection, schedule: Q07DX002 (ip), vehicle: saline, higher = larger tumour) was 97 % of control; the T/C (endpoint: median tumor weight (est.), dose: 6.75 mg/kg/injection, schedule: Q07DX002 (ip), vehicle: saline, higher = larger tumour) is 115 % of control; the T/C (endpoint: median tumor weight (est.), dose: 13.5 mg/kg/injection, schedule: Q07DX002 (ip), vehicle: saline, higher = larger tumour) was 120 % of control; the T/C (endpoint: median tumor weight (est.), dose: 27.0 mg/kg/injection, schedule: Q07DX002 (ip), vehicle: saline, higher = larger tumour) was 91 % of control.
`CCCCNC(C)C1(O)Cc2c(O)c3c(c(O)c2C(OC2CC(N)C(O)C(C)O2)C1)C(=O)c1c(OC)cccc1C3=O` (stereo not drawn): the T/C runs as follows: (endpoint: median tumor weight (est.), dose: 40.0 mg/kg/injection, schedule: Q07DX002 (ip), vehicle: saline, higher = larger tumour) 95 % of control; (endpoint: median tumor weight (est.), dose: 80.0 mg/kg/injection, schedule: Q07DX002 (ip), vehicle: saline, higher = larger tumour) 101 % of control; (endpoint: median tumor weight (est.), dose: 160.0 mg/kg/injection, schedule: Q07DX002 (ip), vehicle: saline, higher = larger tumour) 116 % of control; (endpoint: median tumor weight (est.), dose: 320.0 mg/kg/injection, schedule: Q07DX002 (ip), vehicle: saline, higher = larger tumour) 47 % of control.
Turning to `CC(C)(O)/C=C/C(=O)[C@](C)(O)[C@H]1[C@H](O)C[C@@]2(C)[C@@H]3CC=C4[C@@H](C[C@H](O)C(=O)C4(C)C)[C@]3(C)C(=O)C[C@]12C`, the T/C is 95 % of control (endpoint: median tumor weight (est.), dose: 0.25 mg/kg/injection, schedule: Q07DX002 (ip), vehicle: saline + Tween-80 + alcohol, higher = larger tumour); 106 % of control (endpoint: median tumor weight (est.), dose: 0.5 mg/kg/injection, schedule: Q07DX002 (ip), vehicle: saline + Tween-80 + alcohol, higher = larger tumour); 65 % of control (endpoint: median tumor weight (est.), dose: 1.0 mg/kg/injection, schedule: Q07DX002 (ip), vehicle: saline + Tween-80 + alcohol, higher = larger tumour).
For the molecule `C=C(C)/C([O-])=N/[N+](C)(C)CC(O)CCCCCCCCCCCC` (stereo not drawn), the T/C runs as follows: (endpoint: median tumor weight (est.), dose: 25.0 mg/kg/injection, schedule: Q01DX001 (ip), vehicle: saline, higher = larger tumour) 105 % of control; (endpoint: median tumor weight (est.), dose: 50.0 mg/kg/injection, schedule: Q01DX001 (ip), vehicle: saline, higher = larger tumour) 100 % of control; (endpoint: median tumor weight (est.), dose: 100.0 mg/kg/injection, schedule: Q01DX001 (ip), vehicle: saline, higher = larger tumour) 109 % of control; (endpoint: median tumor weight (est.), dose: 200.0 mg/kg/injection, schedule: Q01DX001 (ip), vehicle: saline, higher = larger tumour) 108 % of control; (endpoint: median tumor weight (est.), dose: 400.0 mg/kg/injection, schedule: Q01DX001 (ip), vehicle: saline, higher = larger tumour) 156 % of control.
For `O=c1[nH]c(=O)c2nc(-c3cccnc3)cnc2[nH]1`, the T/C is, setting by setting: (endpoint: median tumor weight (est.), dose: 12.5 mg/kg/injection, schedule: Q07DX002 (ip), vehicle: saline, higher = larger tumour) 116 % of control; (endpoint: median tumor weight (est.), dose: 25.0 mg/kg/injection, schedule: Q07DX002 (ip), vehicle: saline, higher = larger tumour) 78 % of control and 81 % of control; (endpoint: median tumor weight (est.), dose: 200.0 mg/kg/injection, schedule: Q07DX002 (ip), vehicle: saline, higher = larger tumour) 80 % of control and 103 % of control; (endpoint: median tumor weight (est.), dose: 400.0 mg/kg/injection, schedule: Q07DX002 (ip), vehicle: saline, higher = larger tumour) 95 % of control and 97 % of control.
